Data as given in ChEMBL document CHEMBL1130761, “Synthesis of 2,3,4a,11b-tetrahydro-oxazino[2,3-c]benzopyran-9-carbonitriles as ATP-sensitive potassium channel openers” (Bioorg Med Chem Lett, 1998).

How the values were obtained:
Type in all cases: functional
Rattus norvegicus [1] = species on record: Rattus norvegicus; test: Mechanoinhibitory activity was evaluated in KCl stimulated rat detrusor strip
Rattus norvegicus [2] = species on record: Rattus norvegicus; test: Mechanoinhibitory activity was evaluated by spontaneous contraction of rat portal vein.
[3] = Mechanoinhibitory activity was evaluated by the ratio of IC50(portal vein)/IC50(bladder)
Rattus norvegicus [4] = species on record: Rattus norvegicus; test: Mechanoinhibitory activity in presence of Glibenclamide (1 uM) was evaluated by spontaneous contraction of rat portal vein.
Rattus norvegicus [5] = species on record: Rattus norvegicus; test: Mechanoinhibitory activity in presence of Glibenclamide (1 uM) was evaluated in KCl stimulated rat detrusor strip
Rattus norvegicus [6] = species on record: Rattus norvegicus; test: Mechanoinhibitory activity was evaluated by spontaneous contraction of rat portal vein; + indicates enhancement in spontaneous contraction was observed
Rattus norvegicus [7] = species on record: Rattus norvegicus; test: Mechanoinhibitory activity (bladder-selective potassium channel opening activity) was evaluated in KCl stimulated rat detrusor strip

Structure (SMILES)	IC50 (Rattus norvegicus [1])	IC50 (Rattus norvegicus [2])	IC50 (Rattus norvegicus [4])	IC50 (Rattus norvegicus [5])	IC50 (Rattus norvegicus [7])	Ratio [3]	Effect on spontaneous contraction (Rattus norvegicus [6])
CC1(C)Oc2ccc(C#N)cc2[C@H]2NC(=O)CO[C@@H]21	53.1 µM			56.3 µM			enhancement in spontaneous contraction
CN1C(=O)CO[C@H]2[C@@H]1c1cc(C#N)ccc1OC2(C)C	65.7 µM	26.2 µM	28.3 µM	129 µM		0.4	
CN1C(=O)CO[C@H]2[C@H]1c1cc(C#N)ccc1OC2(C)C	43.8 µM	50.2 µM	72.8 µM	79.5 µM		1.15	
CC(C)C(=O)N1CCO[C@@H]2[C@H]1c1cc(C#N)ccc1OC2(C)C	56.4 µM	18.4 µM	58.9 µM	268 µM		0.33	
CC1(C)Oc2ccc(C#N)cc2[C@@H]2[C@@H]1OCCN2C(=O)c1ccccc1	66 µM			123 µM			enhancement in spontaneous contraction
CC(=O)N1CCO[C@H]2[C@H]1c1cc(C#N)ccc1OC2(C)C	70.1 µM	5.9 µM	79.3 µM	153 µM		0.08	
CC1(C)Oc2ccc(C#N)cc2[C@@H]2[C@@H]1OCCN2C=O	152 µM			158 µM			enhancement in spontaneous contraction
CC1(C)Oc2ccc(C#N)cc2[C@@H](N2CCCC2=O)[C@@H]1O [LEVCROMAKALIM]	0.82 µM	0.13 µM	4.9 µM	8.7 µM		0.16	

The next lines start with results.

IC50 (Rattus norvegicus [1])	IC50 (Rattus norvegicus [2])	IC50 (Rattus norvegicus [4])	IC50 (Rattus norvegicus [5])	IC50 (Rattus norvegicus [7])	Structure (SMILES)	Ratio [3]	Effect on spontaneous contraction (Rattus norvegicus [6])
8.8 µM	2.7 µM	60.9 µM	53.2 µM		CC(=O)N1CCO[C@@H]2[C@H]1c1cc(C#N)ccc1OC2(C)C	0.31	
104 µM	127 µM		244 µM		CC(C)C(=O)N1CCO[C@H]2[C@H]1c1cc(C#N)ccc1OC2(C)C	1.22	
51.8 µM	20.1 µM	52.6 µM	141 µM		CCC(=O)N1CCO[C@@H]2[C@H]1c1cc(C#N)ccc1OC2(C)C	0.39	
47.2 µM	64.9 µM	92.6 µM	318 µM		CCC(=O)N1CCO[C@H]2[C@H]1c1cc(C#N)ccc1OC2(C)C	1.38	
51.8 µM	62.8 µM	117 µM	279 µM		CC1(C)Oc2ccc(C#N)cc2[C@@H]2[C@H]1OCCN2C=O	1.21	
68.2 µM			130 µM		CC1(C)Oc2ccc(C#N)cc2[C@@H]2[C@@H]1OCC(=O)N2Cc1ccccc1		enhancement in spontaneous contraction
	34.5 µM	45.5 µM	32.8 µM	8.15 µM	CC1(C)Oc2ccc(C#N)cc2[C@@H]2[C@H]1OCCN2C(=O)c1ccccc1	4.23	
